In brackets after ≈: the same amount, converted by molar mass. Like-named read-outs stand apart in the source and are kept apart here.

Data on 14 compounds can be found in US20260083674A1, “OXAZOLIDINONE LIPOSOME COMPOSITIONS” (priority 2021, published 2026).

Series [1] is described as follows: Liposome loading: encapsulated drug-to-lipid ratio and encapsulation efficiency. In kind it is physicochemical. The conditions noted are these: for Maximum encapsulated drug payload: 0.5 M AS. Here is the method: 1. The lipid components (phospholipid (PhL), cholesterol, and optionally—a PEG-lipid derivative and/or a lipid fluorescent label were combined in an amount of 100% ethanol equal to one-tenth of a volume (V) calculated to obtain lipid suspension with about 60 mM phospholipid and stirred at the temperature of 65-68° C. until complete dissolution of the lipids.
2. The ethanolic lipid solution was combined with volume V of the trapping agent solution (0.25-0.5 M ammonium sulfate or 1 N triethylammonium sucrose octasulfate) upon stirring at 65-68° C. until a uniform suspension was obtained.
3. The lipid suspension was extruded at least three times through a stack of track-etched polycarbonate membranes, typically, two or four membranes with the nominal pore size of 100 nm and one with the nominal pore size 200 nm (Whatman Nuclepore, USA), using a thermobarrel extruder (Lipex, Canada) at 65-68° C., at the pressure of 400-450 psi. When two 100-nm membranes were used in a 100-ml Lipex extruder, the extrusion pressure was typically 260-300 psi. The resulting liposomes have Z-average particle size (diameter) Xz between about 80 and about 130 nm, and PDI less than 0.1.
5. An aliquot of the extruded, filtered liposome suspension so made was chromatographed on a gravity-fed Sepharose CL-4B size exclusion column (eluent-Type 1 water), to purify the liposomes from extraliposomal trapping agent. The purified liposomes were collected near the void volume fraction of the column. For a scale-up studies, this step was performed using a tangential flow filtration (TFF) on a hollow fiber cartridge (Repligen Spectrum MicroKros PS or mPES membrane with MWCO of 500 KDa) effecting 8-10 volume exchanges (or until the conductivity of the liposome suspension dropped below 200 μS/cm) with Type 1 or USP “Water for injection” endotoxin-free water.
6. The lipid concentration in a purified extruded liposome preparation was determined using HPLC with UV detection, by measuring the concentration of cholesterol and correcting for the known phospholipid/cholesterol molar ratio. Alternatively, a spectrophotometric blue phosphomolybdate method was used to directly quantify the phospholipid content.
7. The drug was dissolved in Type 1 or endotoxin-free pure water in the form of a hydrochloric acid salt (e.g., AKG-3 and AKG-5 were used as monohydrochloride, AKG-28 and AKG-29 were used as dihydrochloride) at the concentration of 5-20 mg/ml of the drug. To the drug prepared in free base form (e.g., AKG-16, AKG-38), an equivalent amount of HCl was added. If necessary, pH of the solution was brought between pH 2.5-5.5, using 1 N NaOH, HCL, or tris(hydroxymethyl)aminomethane (Tris)-base solution, and the solution was filtered through a 0.2-micron PES filter under positive pressure. When necessary, the drug concentration in the stock solution so made was verified by HPLC with UV detection at 305 nm.
8. Purified liposomes of step 5 and the drug stock solution were combined in the presence of an osmotic agent (typically dextrose) and water in the amounts necessary to provide a desired drug-to-phospholipid (DL) ratio, the drug concentration in the range 1.5-3.3 mg/ml, at the osmolality equal to the measured osmolality of the trapping agent solution of step 2. Optionally, a buffer at a desired pH (typically pH 4 to pH 7) was added. In some instances, the amount of added osmotic agent (e.g., dextrose at about 45 g/L) provided osmolality less that the measured osmolality of the trapping agent solution, and the loading was effected at 6-8 mg/ml of the drug.
9. The drug-liposome mixture was incubated with constant agitation at 65-68° C. for about 15-20 min and quickly chilled on ice. After 5-10 min, the mixture was allowed to reach ambient temperature an adjusted to 0.1M NaCl by adding a calculated amount of 3 M NaCl stock solution.
10. […] The liposome fractions were collected near the column void volume. […]

The subject of series [2] is M. tuberculosis Erdman or H37Rv vs VERO or HepG2 cell lines. In words: Selectivity Index (IC50 mammalian cells / MIC bacteria). The arrangement: species or system Mycobacterium tuberculosis. The conditions noted are these: for Selectivity Index (SI) Erd/VERO: IC50 VERO / MIC Erdman; for Selectivity Index (SI) Erd/HepG2: IC50 HepG2 / MIC Erdman; for Selectivity Index (SI) H37Rv/HepG2: IC50 HepG2 / MIC H37Rv; for Selectivity Index (SI) H37Rv/VERO: IC50 VERO / MIC H37Rv.

The subject of series [3] is M.tb Erdman. The series is described as follows: Broth microdilution MIC with Alamar blue endpoint (MABA), M.tb Erdman. The note with it: for MIC: Mycobacterium tuberculosis, ERDMAN, broth microdilution, MABA/OD600. Format: cell-based, Mycobacterium tuberculosis.
Series [4] relates to M.tb H37Rv. In words: Broth microdilution MIC with Alamar blue endpoint (MABA), M.tb H37Rv. In kind it is cell-based. The note with it: Mycobacterium tuberculosis, broth microdilution, MABA/OD600, read-out: Mycobacterium tuberculosis MIC, H37Rv.
The subject of series [5] is African green monkey kidney (Vero; ATCC #CCL81) cells. The series is described as follows: In vitro cytotoxicity (PrestoBlue cell viability), Vero cells. The conditions noted are these: Chlorocebus sabaeus, 72 h, read-out: Cell viability IC50, VERO.
Description: (§1) Data is reported out as the full cell viability curve, as well as a calculation of the actual IC50 value for each compound.
(§2) Adherent cells were grown to ˜80% confluency. […] The cell density was determined using a hemocytometer.
(§3) These compounds were provided as sterile aqueous solutions of HCl salts with a concentration of 5 mg/ml. For making dilutions, each drug stock was warmed to room temperature, vortexed and was visually inspected for precipitation. If solid drug was present, the stock was heated on a 60° C. water bath and then allowed to cool to near room temperature. Based on the treatment concentrations, 20× working stocks were made by serial dilution.
(§4) At the end of the compound incubation period, replace the media in each well with 100 μl of 1× PrestoBlue Cell Viability Reagent (ThermoFisher Cat #A13261). Incubate the plate at 37° C. in a humidified incubator with 5% CO2 30 min to 2 h. […] Read fluorescence with 560 nm excitation and 590 nm emission using SpectraMax M5 plate reader (Molecular Devices). Correct background by subtracting the RFU of the control containing only the culture medium (background control well) from all sample readings. Calculate the percentage of cytotoxicity using the formula below:
(§5) The IC50 was determined using GraphPad Prism using the following formula:
In series [6] the test system is human hepatocyte/liver (HepG2; ATCC #HB8065) cells. The series is described as follows: In vitro cytotoxicity (PrestoBlue cell viability), HepG2 cells. The conditions noted are these: HepG2, 72 h, read-out: Cell viability IC50, HepG2.
Description: as §1, §2, §3, §4, §5
The format of series [7] is physicochemical. The protocol: To the resulting cake or syrup, water was added typically to the final 10 mg/ml, and complete dissolution was observed. […] Aqueous solubility of the compounds of the present disclosure is illustrated by the following observations of obtaining visually clear solutions: […]
The test system of series [8] is mitochondrial protein synthesis vs H37Rv M. tuberculosis. The series is described as follows: MPS selectivity index (MPS IC50 / MIC H37Rv).
In series [9] the test system is methicillin resistant Staphylococcus aureus (MRSA) ATCC 43300. The series is described as follows: MIC against MRSA strain ATCC 43300. The note with it: read-out: MRSA MIC, strain ATCC 43300.
Series [10] concerns methicillin resistant Staphylococcus aureus (MRSA) ATCC BAA-1556. In words: MIC against MRSA strain ATCC BAA-1556. The conditions noted are these: ATCCBAA1556|MRSA.
Series [11] concerns methicillin resistant Staphylococcus aureus (MRSA) 880 NR-49120. The series is described as follows: MIC against MRSA strain 880 NR-49120. The note with it: read-out: MRSA MIC, strain 880 NR-49120.
Where [12] appears, read: 1 N TEA-SOS, DL0 750-1500 g/mol PhL.

As to `CN(C)CCCC(=O)OC[C@H]1CN(c2ccc(-c3ccc(-c4nnn(C)n4)nc3)c(F)c2)C(=O)O1` [AKG-5], the “Maximum encapsulated drug payload” value in series [1] (0.5 mol % PEG) stood at 627 g/mol PhL. In addition, the Drug loading efficiency is given as 101.3 in series [1] (0.5 mol % PEG-DSG, 1N TEA-SOS, DL0 500 g/mol PhL (Example 8, no added buffer)); 98.5 in series [1] (0.5 mol % PEG-DSG, […] AS, DL0 250 g/mol PhL); 97.7 in series [1] (0.5 mol % PEG-DSG, […] AS, DL0 500 g/mol PhL); 99.3 in series [1] (5 mol % PEG-DSG, 1N TEA-SOS, DL0 500 g/mol PhL). Moreover, the “loading efficiency at or near the maximum drug load” value in series [1] (setting [12]) is recorded as at least 96.0%. Besides, the maximum drug load in series [1] (setting [12]) is recorded as 982-1197 g/mol PhL. Also, the “Selectivity Index (SI) Erd/VERO” value in [2] is 32.5.
As to `CCN(CC)CCCNC[C@H]1CN(c2ccc(-c3ccc(-c4nnn(C)n4)nc3)c(F)c2)C(=O)O1` [AKG-8], the MIC in series [3] and in [4] was above 8 µg/mL in each case.
In series [3], `CCN(CC)CCNC[C@H]1CN(c2ccc(-c3ccc(-c4nnn(C)n4)nc3)c(F)c2)C(=O)O1` [AKG-9] gave an MIC above 8 µg/mL. Further, in series [2], the “Selectivity Index (SI) Erd/HepG2” value is on record as below 3.5, the “Selectivity Index (SI) H37Rv/HepG2” value was determined as 3.5, the “Selectivity Index (SI) Erd/VERO” value is recorded as below 17.4 and the “Selectivity Index (SI) H37Rv/VERO” value was below 17.4. Besides, the IC50 in series [5] is 139 µg/mL (≈ 297 µM). Moreover, the IC50 in [6] came out at 28.1 µg/mL (≈ 60 µM). The MIC in series [4] is above 8 µg/mL.
In series [3], `CN(C)CCNc1ccc(-c2ccc(N3C[C@H](CO)OC3=O)cc2F)cn1` [AKG-12] showed an MIC of 4 µg/mL (≈ 10.7 µM). Also, in series [2], the “Selectivity Index (SI) Erd/HepG2” value turned out to be 16.9, the “Selectivity Index (SI) H37Rv/HepG2” value is 16.9, the “Selectivity Index (SI) Erd/VERO” value turned out to be 22.3 and the “Selectivity Index (SI) H37Rv/VERO” value is given as 22.3. Moreover, the IC50 in [5] is 89.1 µg/mL (≈ 238 µM). In addition, the IC50 in series [6] was 67.6 µg/mL (≈ 181 µM). For the same compound, in series [4], the MIC was found to be 4 µg/mL (≈ 10.7 µM).
As to `CN(C)CCn1nnc(-c2ccc(-c3ccc(N4C[C@H](CO)OC4=O)cc3F)cn2)n1` [AKG-16], the “Maximum encapsulated drug payload” value in series [1] (0.5 mol % PEG) is given as 668-675 g/mol PhL; in series [1] (5 mol % PEG), 614-619 g/mol PhL. Further, the maximum drug load in series [1] (setting [12]) is 938-951 g/mol PhL. For the same compound, the “Concentration % (w/w) of free base, visually clear solution” value in series [7] was 30.0 % (w/w).
In series [3], `Cl.Cn1nnc(-c2ccc(-c3ccc(N4C[C@H](CNC(=O)CCN)OC4=O)cc3F)cn2)n1` [AKG-17] showed an MIC of 2 µg/mL. In addition, in series [2], the “Selectivity Index (SI) Erd/HepG2” value is 18.7, the “Selectivity Index (SI) H37Rv/HepG2” value is listed as 18.7, the “Selectivity Index (SI) Erd/VERO” value is on record as above 125 and the “Selectivity Index (SI) H37Rv/VERO” value was above 125. In [6], the IC50 amounted to 37.3 µg/mL. In addition, the MIC in series [4] was 2 µg/mL.
Regarding `Cl.Cn1nnc(-c2ccc(-c3ccc(N4C[C@H](CNC(=O)CCCN)OC4=O)cc3F)cn2)n1` [AKG-18], it took 2 µg/mL to inhibit growth in series [3] (MIC). Also, in series [2], the “Selectivity Index (SI) Erd/HepG2” value stood at 4.8, the “Selectivity Index (SI) H37Rv/HepG2” value was determined as 4.8, the “Selectivity Index (SI) Erd/VERO” value is above 125 and the “Selectivity Index (SI) H37Rv/VERO” value is recorded as above 125. Moreover, the IC50 in series [5] was above 250 µg/mL. In series [6], the IC50 was found to be 9.5 µg/mL. Also, the MIC in [4] worked out at 2 µg/mL.
Compound `Cl.Cn1nnc(-c2ccc(-c3ccc(N4C[C@H](CNCCN)OC4=O)cc3F)cn2)n1` [AKG-19] yielded an MIC in series [3] above 8 µg/mL. Further, in [2], the “Selectivity Index (SI) Erd/HepG2” value was 5.3, the “Selectivity Index (SI) H37Rv/HepG2” value worked out at 5.3, the “Selectivity Index (SI) Erd/VERO” value was above 31.3 and the “Selectivity Index (SI) H37Rv/VERO” value was above 31.3. Further, the IC50 in series [5] is above 250 µg/mL. Also, the IC50 in [6] came to 42.2 µg/mL. For the same compound, the MIC in series [4] was above 8 µg/mL.
As for `Cl.NCCn1nnnc1-c1ccc(-c2ccc(N3C[C@H](CO)OC3=O)cc2F)cn1` [AKG-22], in [8], the “SI-MPS MPS/H37” value turned out to be 2.37.
On to `CN(C)CCn1nnc(-c2ccc(-c3ccc(N4C[C@H](CN)OC4=O)cc3F)cn2)n1` [AKG-28], for which the “Concentration % (w/w) of free base, visually clear solution” value in series [7] is listed as 7.3 % (w/w).
Consider `Cl.Cl.NCCn1nnc(-c2ccc(-c3ccc(N4C[C@H](CN)OC4=O)cc3F)cn2)n1` [AKG-29], for which the MIC in [3] is 0.25 µg/mL; in series [9], above 50 µg/mL; in series [10] (read-out: MIC against the three MRSA strains) it was above 50 µg/mL; in series [10] (read-out: MRSA MIC, strain ATCC BAA-1556), 50 µg/mL; in series [11], 50 µg/mL. Further, the IC50 is 110 µg/mL in series [5] and 74.4 µg/mL in series [6]. In series [8], the “SI-MPS MPS/H37” value came out at 32.80.
As to `CCN(CC)CCCn1nnc(-c2ccc(-c3ccc(N4C[C@H](CN)OC4=O)cc3F)cn2)n1.Cl` [AKG-31], the MIC in series [3] and in [4] was 0.5 µg/mL each time. The “Selectivity Index (SI) H37Rv/HepG2” value in series [2] was determined as 26.4. Moreover, the “Selectivity Index (SI) H37Rv/VERO” value in series [2] is 223.0. Besides, the figures for the IC50 in series [5] and in series [6] were 112 µg/mL and 13.2 µg/mL, respectively.
Regarding `CCN(CC)CCn1nnc(-c2ccc(-c3ccc(N4C[C@H](CNC(C)=O)OC4=O)cc3F)cn2)n1` [AKG-39], the MIC, M. tuberculosis (Example 2) in [3] (strain not given) was found to be 0.5 µg/mL (≈ 1.01 µM). Besides, in series [8], the “SI-MPS MPS/H37” value turned out to be 0.12.
As to `CCN(CC)CCCn1nnc(-c2ccc(-c3ccc(N4C[C@H](CNC(C)=O)OC4=O)cc3F)cn2)n1` [AKG-40], in [8], the “SI-MPS MPS/H37” value is reported as 0.13.
